Test results as given in paper PMC10762035, “Molecular basis of human trace amine-associated receptor 1 activation” (Nature Communications, 2024).
Positions count from the first letter of the chain named. Values joined by “and” are separate entries in the source; they are usually repeats but may differ in a detail not shown here. Identical values can stand only once. Like-named read-outs stand apart in the source and are kept apart here.

Tests used:
[1] = biological target: T1, β2AR-Nterm-hTA1-F112^3.41W (CryoEM Construct) (Homo sapiens, UniProt Q96RJ0, F112W); assay: GloSensor cAMP accumulation assay, cryoEM construct; format: cell-based;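 note: cells transiently co-transfected with the receptor construct and GloSensor cAMP biosensor, luminescence read after 30 min compound exposure at room temperature in the dark as cAMP accumulation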;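 for Normalized Luminescence Counts (N=2): normalized to the maximum response of β-PEA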
T1 construct: FLAG (N); 10xHis (N); TEV protease site (N); expressed in transfected cells; host or cells: HEK293T

[2] = biological target: T2, hTA1 C88/178S (Homo sapiens, UniProt Q96RJ0, C178S/C88S); assay: GloSensor cAMP accumulation assay, C88S/C178S double mutant; format: cell-based; details: for Normalized Luminescence Counts (N=2): log[Compound], single replicate values
T2 construct: expressed in transfected cells; host or cells: HEK293T
T2 sequence (Q96RJ0 1-339 C88S/C178S): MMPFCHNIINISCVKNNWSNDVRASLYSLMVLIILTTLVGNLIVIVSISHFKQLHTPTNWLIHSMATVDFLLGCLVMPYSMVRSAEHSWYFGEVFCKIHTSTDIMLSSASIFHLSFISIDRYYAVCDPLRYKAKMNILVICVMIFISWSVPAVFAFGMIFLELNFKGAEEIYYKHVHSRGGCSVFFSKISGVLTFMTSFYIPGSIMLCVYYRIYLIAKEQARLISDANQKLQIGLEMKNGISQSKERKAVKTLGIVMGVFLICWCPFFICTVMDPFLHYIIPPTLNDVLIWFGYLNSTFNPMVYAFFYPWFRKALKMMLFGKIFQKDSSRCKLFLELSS

[3] = biological target: T3, hTA1 C5S (Homo sapiens, UniProt Q96RJ0, C5S); assay: GloSensor cAMP accumulation assay, C5S mutant; format: cell-based; details: for C5S - Normalized Luminescence Counts (N=2): log[Compound], single wells
T3 construct: expressed in transfected cells; host or cells: HEK293T
T3 sequence (Q96RJ0 1-339 C5S): T2 sequence (Q96RJ0 1-339 C88S/C178S) with C5S, S88C, S178C

[4] = biological target: T4, hTA1 T271A (Homo sapiens, UniProt Q96RJ0, T271A); assay: GloSensor cAMP accumulation assay, T271A mutant; format: cell-based
T4 construct: expressed in transfected cells; host or cells: HEK293T
T4 sequence (Q96RJ0 1-339 T271A): T2 sequence (Q96RJ0 1-339 C88S/C178S) with S88C, S178C, T271A

[5] = biological target: T5, hTA1 T194A (Homo sapiens, UniProt Q96RJ0, T194A); assay: GloSensor cAMP accumulation assay, T194A mutant; details: for cAMP accumulation response, individual replicate values of the concentration-response curve: hTA1 T194A, log[Agonist], Supplementary Figure 5 source data
T5 sequence (Q96RJ0 1-339 T194A): T2 sequence (Q96RJ0 1-339 C88S/C178S) with S88C, S178C, T194A

[6] = Cryo EM Construct minus WT average
[7] = C88S, C178S, each row is one independent experiment, 3 replicates

T1 sequence (Q96RJ0 with tags, fused parts or gaps F112W): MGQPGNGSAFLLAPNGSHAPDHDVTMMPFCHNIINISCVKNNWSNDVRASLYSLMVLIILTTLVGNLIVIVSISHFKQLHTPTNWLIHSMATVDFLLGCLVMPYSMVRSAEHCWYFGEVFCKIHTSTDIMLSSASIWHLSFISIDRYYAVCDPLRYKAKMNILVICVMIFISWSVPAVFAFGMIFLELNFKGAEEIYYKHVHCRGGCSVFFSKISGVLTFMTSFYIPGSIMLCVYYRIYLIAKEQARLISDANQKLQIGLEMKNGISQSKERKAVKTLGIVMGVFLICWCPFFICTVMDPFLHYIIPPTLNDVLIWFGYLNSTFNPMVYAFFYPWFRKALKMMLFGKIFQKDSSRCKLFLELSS

In the case of NCCc1ccc(O)cc1 [TYR, tyramine], the “ΔEmax values (each mutant value - WT average), Mean” value [1, 6] is reported as 14.87 and 14.1384, the “ΔpEC50 values (each mutant value - WT average), Mean” value (shortened to “ΔpEC50 values”) [1, 6] is reported as 0.1106 and 0.3686 and the “Emax values, Mean” value ([1]; Cryo EM Construct, mean of each independent experiment (3 replicates)) is reported as 0.3686. The EC50 ([1]; Cryo EM Construct, mean of each independent experiment (3 replicates), read-out: pEC50 values, Mean (converted)) was 0.322 µM and 0.178 µM, the “Normalized Luminescence Counts (N=2)” value ([1]; CryoEM Construct, log[Compound], M = -5, single replicates) was 108.729 and 109.99 and 112.27 and 114.944 and the EC50 ([1]; CryoEM Construct, n=2, read-out: EC50) was 0.235 µM. The Emax ([1]; CryoEM Construct, n=2, read-out: Span ± SEM (Emax normalized to β-PEA)) was 113 ± 2.5%, the EC50 ([1]; CryoEM Construct, n=2, read-out: pEC50 ± SEM (converted)) was 0.24 µM and the EC50 ([2]; C88/178S, n=2, read-out: EC50) was 0.516 µM. For the same molecule, the “ΔEmax values (each mutant value - WT average), Mean” value [2, 7] was 5.171 and -4.429, the “ΔpEC50 values” value [2, 7] was -0.1652 and -0.02439 and the EC50 ([2]; C88S, C178S, each row is one independent experiment, 3 replicates, read-out: pEC50 values, Mean (converted)) was 0.607 µM and 0.439 µM. The “Normalized Luminescence Counts (N=2)” value ([2]; C88S, C178S, M = -5) was 80.5108 and 118.73 and 96.3411 and 73.7167 and 119.633 and 101.508, the “Normalized Luminescence Counts (N=2)” value ([2]; C88S, C178S, M = -5.522) was 83.5638 and 94.9277 and 84.0161 and 70.847 and 65.5606 and 81.5707 and the “Normalized Luminescence Counts (N=2)” value ([2]; C88S, C178S, M = -6) was 61.2318 and 70.3907 and 58.4615 and 74.6229 and 67.8262 and 50.6077. For the same molecule, the “Normalized Luminescence Counts (N=2)” value ([2]; C88S, C178S, M = -6.522) was 35.2248 and 33.0764 and 35.0552 and 41.5453 and 51.665 and 30.8216, the “Normalized Luminescence Counts (N=2)” value ([2]; C88S, C178S, M = -7) was 17.4722 and 16.0588 and 18.7726 and 21.6082 and 20.853 and 15.4156 and the “Normalized Luminescence Counts (N=2)” value ([2]; C88S, C178S, M = -7.522) was 4.582 and 7.069 and 6.674 and 4.541 and 4.692 and 3.332. For the same molecule, the “Normalized Luminescence Counts (N=2)” value ([2]; C88S, C178S, M = -8) was 0.3416 and 1.077 and 0.3981 and 2.124 and 2.577 and 4.239, the “Normalized Luminescence Counts (N=2)” value ([2]; C88S, C178S, M = -8.522) was 0.2285 and 0.4547 and 1.1331 and 0.9158 and 0.6137 and 2.577 and the “Normalized Luminescence Counts (N=2)” value ([2]; C88S, C178S, M = -9) was -0.6195 and -0.1107 and 0.3416 and -1.501 and -1.35 and 3.6345. The “Normalized Luminescence Counts (N=2)” value ([2]; C88S, C178S, M = -9.522) was -0.5065 and -0.563 and -0.05417 and -0.8967 (2×) and -1.652, the “Normalized Luminescence Counts (N=2)” value ([2]; C88S, C178S, M = -10) was -0.1107 and -0.9588 (2×) and -1.35 and -0.4436 and -0.1415 and the “Normalized Luminescence Counts (N=2)” value ([2]; C88S, C178S, M = -10.522) was -0.6195 and -0.1672 and 0.0589 and -1.954 and -1.048 and 1.067. The “Normalized Luminescence Counts (N=2)” value ([2]; C88S, C178S, M = -11) was -0.05417 and 0.5677 and 0.3981 and -1.652 and -0.8967 and 0.7648, the “Normalized Luminescence Counts (N=2)” value ([2]; C88S, C178S, M = -11.522) was 0.7373 and 0.9635 and 0.285 and -0.8967 (2×) and 0.1606 and the “Normalized Luminescence Counts (N=2)” value ([2]; C88S, C178S, M = -12) was -0.563 and 1.02 and 0.7939 and -0.1415 and -1.048 and 0.7648. For the same molecule, the “Normalized Luminescence Counts (N=2)” value ([2]; C88S, C178S, M = -12.522) was 0.2285 and 0.8504 and 0.3981 and -0.8967 and -0.4436 and -1.199, the “Emax values, Mean” value ([2]; C88S, C178S, normalized (β-PEA = 100), each row is one independent experiment, 3 replicates) was 104.155 and 94.5547 and the Emax ([2]; read-out: Span ± SEM (Emax normalized to β-PEA)) was 99.3 ± 4.8%. For the same molecule, the EC50 ([3]; C5S, n=2, read-out: EC50) was 0.418 µM, the Emax ([3]; C5S, n=2, read-out: Span ± SEM (Emax normalized to β-PEA)) was 97.4 ± 4.98% and the “ΔpEC50 values” value ([3]; hTA1 C5S minus WT average) was 0.08447 and -0.09146. The EC50 ([3]; hTA1 C5S, mean of 3 replicates, one line per independent experiment, read-out: pEC50 values, Mean (converted)) was 0.342 µM and 0.512 µM, the “Emax values, Mean” value ([3]; hTA1 C5S, β-PEA = 100, mean of 3 replicates, one line per independent experiment) was 92.4348 and the Emax ([3]; hTA1 C5S, β-PEA = 100, mean of 3 replicates, one line per independent experiment, read-out: Emax values, Mean) was 102%. The “C5S - Normalized Luminescence Counts (N=2)” value ([3]; M = -5) was 102.862 and 111.578 and 98.7984 and 85.7838 and 116.923 and 74.2532, the “C5S - Normalized Luminescence Counts (N=2)” value ([3]; M = -5.522) was 86.6512 and 89.3832 and 85.861 and 68.3844 and 81.1578 and 69.9034 and the “C5S - Normalized Luminescence Counts (N=2)” value ([3]; M = -6) was 78.4779 and 69.4918 and 73.443 and 62.6536 and 54.2301 and 61.4799. The “C5S - Normalized Luminescence Counts (N=2)” value ([3]; M = -6.522) was 44.8815 and 51.1131 and 50.1196 and 36.2784 and 34.207 and 33.0332, the “C5S - Normalized Luminescence Counts (N=2)” value ([3]; M = -7) was 29.0315 and 24.8319 and 26.4576 and 17.7742 and 18.5337 and 19.2242 and the “C5S - Normalized Luminescence Counts (N=2)” value ([3]; M = -7.522) was 7.6273 and 8.959 and 8.553 and 6.382 and 5.3461 and 5.829. For the same molecule, the “reduction in potency vs wild type” value ([4]; T271A) was “about 10 fold”, the EC50 ([4]; T271A mutant, Figure 5B, each row one independent experiment (3 replicates), read-out: pEC50 values, Mean (converted)) was 7.63 µM and 3.08 µM and the “Emax values, Mean” value ([4]; T271A mutant, Figure 5B, β-PEA = 100, each row one independent experiment (3 replicates)) was 138.16 and 109.079. For the same molecule, the EC50 ([4]; T271A, n=2, read-out: EC50) was 4.85 µM, the Emax ([4]; T271A, n=2, read-out: Span ± SEM (Emax normalized to β-PEA)) was 124% and the “Emax values, Mean” value ([5]; T149A (so in the source), single experiments (3 replicates each), β-PEA = 100) was 107.638 and 114.006 and 104.682. For the same molecule, the “increase in potency vs wild type” value ([5]; T194A) was “over 10 fold”, the “cAMP accumulation response, individual replicate values of the concentration-response curve” value (“cAMP accumulation response” for short) ([5]; M = -7.522) was 49.8086 and 42.1239 and 66.6609 and 74.3619 and 75.9423 and 70.8058 and 84.4051 and 77.1239 and 72.2846 and the “cAMP accumulation response” value ([5]; M = -8) was 33.9 and 32.0125 and 38.7535 and 48.6794 and 43.1478 and 39.7894 and 64.0267 and 60.8745 and 66.5574. The “cAMP accumulation response” value ([5]; M = -8.522) was 15.6995 and 22.1708 and 14.0817 and 16.28 and 19.441 and 18.4532 and 29.6632 and 30.1959 and 31.2615, the “cAMP accumulation response” value ([5]; M = -9) was 1.409 and 7.206 and 6.936 and 8.575 and 6.7973 and 9.5631 and 13.5914 and 13.9909 and 14.0797 and the “cAMP accumulation response” value ([5]; M = -9.522) was 1.813 and 2.083 and -1.153 and 1.068 and 2.253 and 1.463 and 4.046 and 5.511 and 3.469. The “cAMP accumulation response” value ([5]; M = -10) was -1.827 and -1.288 and -1.4224 and 2.056 (2×) and 1.661 and 1.693 and 1.604 and 1.782, the “cAMP accumulation response” value ([5]; M = -10.522) was -1.827 and -0.7483 and -1.153 and 0.2779 and -0.3148 and -0.1172 and 1.027 and 0.8937 (2×) and the “cAMP accumulation response” value ([5]; M = -11) was -0.4787 and -1.692 and -1.153 and 0.2779 and -1.105 and -1.303 and -0.971 and 0.4497 and 0.1834. The “cAMP accumulation response” value ([5]; M = -11.522) was -1.557 and 0.8695 and -1.4224 and -1.105 (2×) and -0.7099 and 0.09457 and 0.05017 and 0.4053, the “cAMP accumulation response” value ([5]; M = -12) was -0.7483 (2×) and -1.288 and -0.9074 (2×) and -0.3148 and -0.4826 and -0.1718 and -0.2162 and the “cAMP accumulation response” value ([5]; M = -12.522) was -0.07421 and 1.139 and 0.4651 and -1.105 (2×) and -0.5123 and -0.08302 and -0.2606 and 0.005772. For the same molecule, the EC50 ([5]; pEC50 values, Mean, T149A (so in the source), single experiments (3 replicates each)) was 0.00801 µM and 0.0268 µM and 0.0143 µM, the EC50 ([5]; pEC50 ± SEM, T194A) was 0.0145 µM and the Emax ([5]; read-out: Span ± SEM (Emax normalized to β-PEA), T194A) was 109 ± 4.66%.
